# Assay results as given in patent US8129401B2, “Heterocyclic compounds useful for the treatment of inflammatory and allergic disorders: process for their preparation and pharmaceutical compositions containing them” (Glenmark Pharmaceuticals S.A., priority 2004, dated 2012).
# Structures can show the parent of a compound that is named as a salt.
# System: PDE4 enzyme
# Assay: Inhibition of phosphodiesterase enzymes (PDE4), [3H]cAMP hydrolysis assay
# Format: biochemical
# Settings: PDE4 inhibition at 1 μM compound
row,Compound,percent inhibition at 1 μM [% at 1 μM]
1,"COc1ccc(C(=O)Nc2c(Cl)cncc2Cl)c2c3c(n(C)c12)C(=O)N(C)CC3 [Example 22, N-(3,5-dichloropyridin-4-yl)-2,9-dimethyl-8-methoxy-1-oxo-1,2,3,4-tetrahydro-β-carboline-5-carboxamide]",34.54
2,"COc1ccc(C(=O)Nc2c(Cl)cncc2Cl)c2c3c(n(CC4CC4)c12)CCN(C(=O)OC(C)(C)C)C3 [Example 12, tert-butyl 9-(3,5-dichloro-4-pyridylcarbamoyl)-6-methoxy-5-cyclopropylmethyl-1,3,4,5-tetrahydro-1H-pyrido[4,3-b]indole-2-carboxylate]",48.79
3,"COc1ccc(C(=O)Nc2c(Cl)cncc2Cl)c2c3c(sc12)CNCC3 [Example 08, N5 (3,5-dichloro-4-pyridyl)-8-methoxy-1,2,3,4-tetrahydrobenzo[4,5]thieno[2,3-c]pyridine-5-carboxamide hydrochloride]",31.75
4,"N9-(3,5-dichloro-4-pyridylcarbamoyl)-6-methoxy-5-methyl-1,3,4,5-tetrahydro-1H-pyrido[4,3-b]indole hydrochloride [Example 13]",20.99
5,"COc1ccc(C(=O)Nc2c(Cl)cncc2Cl)c2c3c(n(C)c12)CCN(C)C3 [Example 15, N9-(3,5-dichloro-4-pyridylcarbamoyl)-6-methoxy-2,5-methyl-1,3,4,5-tetrahydro-1H-pyrido[4,3-b]indole]",12.90
6,"COc1ccc(C(=O)Nc2c(Cl)cncc2Cl)c2c3c(n(C)c12)CCN(C(=O)OC(C)(C)C)C3 [Example 10, tert-butyl 9-(3,5-dichloro-4-pyridylcarbamoyl)-6-methoxy-5-methyl-1,3,4,5-tetrahydro-1H-pyrido[4,3-b]indole-2-carboxylate]",27.74
7,"COc1ccc(C(=O)Nc2ccncc2)c2c3c(n(C)c12)CCN(C(=O)OC(C)(C)C)C3 [Example 17, tert-butyl 9-(4-pyridinylcarbamoyl)-6-methoxy-5-methyl-1,3,4,5-tetrahydro-1H-pyrido[4,3-b]indole-2-carboxylate]",33.67

# Same assay, conditions: PDE4 inhibition, 1 μM cAMP, 34° C.
row,Compound,IC50 [nM]
1,"COc1ccc(C(=O)Nc2c(Cl)cncc2Cl)c2c1oc1ccncc12 [Example 03, N9-(3,5-dichloro-4-pyridyl)-6-methoxybenzo[4,5]furo[3,2-c]pyridine-9-carboxamide]",0.73
2,"O=C(Nc1c(Cl)c[n+]([O-])cc1Cl)c1ccc(OC(F)F)c2oc3ccncc3c12 [Example 26, 3,5-dichloro-4-(6-difluoromethoxybenzo[4,5]furo[3,2-c]pyridin-9-ylcarboxamido)-1-pyridiniumolate]",2.69
3,"COc1ccc(C(=O)Nc2c(Cl)cncc2Cl)c2c3c(sc12)CN(C(=O)OC(C)(C)C)CC3 [Example 07, tert-butyl 5-(3,5-dichloro-4-pyridylcarbamoyl)-8-methoxy-1,2,3,4-tetrahydrobenzo[4,5]thieno[2,3-c]pyridine-2-carboxylate]",416
4,"CCOC(=O)N1CCc2c(oc3c(OC)ccc(C(=O)Nc4c(Cl)cncc4Cl)c23)C1 [Example 19, N-(3,5-dichloropyridin-4-yl)-2-(ethoxycarbonyl)-8-methoxy-1,2,3,4-tetrahydro[1]benzofuro[2,3-c]pyridine-5-carboxamide]",7.53
5,"COc1ccc(C(=O)Nc2c(Cl)cncc2Cl)c2c3c(n(Cc4ccccc4)c12)CCN(C)C3 [Example 16, N9-(3,5-dichloro-4-pyridylcarbamoyl)-6-methoxy-2-methyl-5-benzyl-1,3,4,5-tetrahydro-1H-pyrido[4,3-b]indole]",2280
6,"O=C(Nc1c(Cl)cncc1Cl)c1ccc(OC(F)F)c2oc3cnncc3c12 [Example 04, N9-(3,5-dichloro-4-pyridyl)-6-difluoromethoxybenzo[4,5]furo[2,3-d]pyridazine-9-carboxamide]",3.41
7,"COc1ccc(C(=O)Nc2c(Cl)cncc2Cl)c2c3c(n(Cc4ccccc4)c12)CCN(C(=O)OC(C)(C)C)C3 [Example 11, tert-butyl 9-(3,5-dichloro-4-pyridylcarbamoyl)-6-methoxy-5-benzyl-1,3,4,5-tetrahydro-1H-pyrido[4,3-b]indole-2-carboxylate]",177
8,"O=C(Nc1c(Cl)c[n+]([O-])cc1Cl)c1ccc(OC(F)F)c2oc3ccncc3c12 [Example 27, 3,5-dichloro-4-(6-difluoromethoxybenzo[4,5]furo[3,2-c]pyridin-9-ylcarboxamido)-1-pyridiniumolate sodium]",2.42
9,"COc1ccc(C(=O)Nc2c(Cl)cncc2Cl)c2c1oc1cnncc12 [Example 01, N9-(3,5-dichloro-4-pyridyl)-6-methoxybenzo[4,5]furo[2,3-d]pyridazine-9-carboxamide]",1.38
10,"O=C(Nc1c(Cl)cncc1Cl)c1ccc(OC(F)F)c2oc3ccncc3c12 [Example 23, N9-(3,5-dichloro-4-pyridyl)-6-difluoromethoxybenzo[4,5]furo[3,2-c]pyridine-9-carboxamide]",0.25
11,"O=C(Nc1c(Cl)c[n+]([O-])cc1Cl)c1ccc(OC(F)F)c2oc3cnncc3c12 [Example 25, 3,5-dichloro-4-(6-difluoromethoxybenzo[4,5]furo[2,3-d]pyridazine-9-ylcarboxamido)-1-pyridiniumolate]",3.99
12,"COc1ccc(C(=O)Nc2c(Cl)cncc2Cl)c2c3c(n(Cc4ccccc4)c12)CCNC3 [Example 14, N9-(3,5-dichloro-4-pyridylcarbamoyl)-6-methoxy-5-benzyl-1,3,4,5-tetrahydro-1H-pyrido[4,3-b]indole hydrochloride]",3530
13,"COc1ccc(C(=O)Nc2c(Cl)cncc2Cl)c2c3c(oc12)CCNC3 [Example 21, N-(3,5-dichloropyridin-4-yl)-6-methoxy-1,2,3,4-tetrahydro[1]benzofuro[3,2-c]pyridine-9-carboxamide hydrochloride]",20.4
14,"COc1ccc(C(=O)Nc2c(Cl)cncc2Cl)c2c1oc1cncnc12 [Example 02, N9-(3,5-dichloro-4-pyridyl)-6-methoxybenzo[4,5]furo[3,2-d]pyrimidine-9-carboxamide]",494
15,"COc1ccc(C(=O)Nc2c(Cl)cncc2Cl)c2c3c(oc12)CNCC3 [Example 20, N-(3,5-dichloropyridin-4-yl)-8-methoxy-1,2,3,4-tetrahydro[1]benzofuro[2,3-c]pyridine-5-carboxamide hydrochloride]",17.4

# Same assay, conditions: PDE4 inhibition, 1 μM cAMP, 34° C.; sodium
row,Compound,IC50 [nM]
1,"O=C(Nc1c(Cl)cncc1Cl)c1ccc(OC(F)F)c2oc3ccncc3c12 [Example 24, N9-(3,5-dichloro-4-pyridyl)-6-difluoromethoxybenzo[4,5]furo[3,2-c]pyridine-9-carboxamide sodium]",0.02

# Same assay, conditions: PDE4 inhibition, 1 μM cAMP, 34° C.; sodium salt
row,Compound,IC50 [nM]
1,"COc1ccc(C(=O)Nc2c(Cl)cncc2Cl)c2c1oc1cnncc12 [Example 18, N9-(3,5-dichloro-4-pyridyl)-6-methoxybenzo[4,5]furo[2,3-d]pyridazine-9-carboxamide sodium salt]",4.08
2,"O=C(Nc1c(Cl)cncc1Cl)c1ccc(OC(F)F)c2oc3cnncc3c12 [Example 05, N9-(3,5-dichloro-4-pyridyl)-6-difluoromethoxybenzo[4,5]furo[2,3-d]pyridazine-9-carboxamide sodium salt]",4.15
